# Active and inactive are the calls of the source.
# How the values were obtained:
# [1] = molecular target: T1, G-protein coupled receptor 55 (Homo sapiens, UniProt Q9Y2T6); test: inhibition of LPI-stimulated GPR55 beta-arrestin translocation – imaging, U2OS, beta-arrestin-GFP, LPI agonist, primary screen (AID 2013); format: functional;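 also: antagonist potency measured as reduced agonist-driven arrestin aggregation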
# Cannabinoid receptor 2 [2] = molecular target: T2, Cannabinoid receptor 2 (Homo sapiens, UniProt P34972); test: SAR analysis of agonists of the Cannabinoid Receptor 2 using an Image-Based Assay. [Related pubchem assays (depositor defined):AID2013, AID2026]; format: functional
# [3] = molecular target: T1, G-protein coupled receptor 55; test: blockade of LPI-induced GPR55 arrestin translocation – imaging, U2OS, beta-arrestin-GFP, LPI agonist, set 2, SAR follow-up (AID 2820); format: functional
# Cannabinoid receptor 1 [4] = molecular target: T3, Cannabinoid receptor 1 (Homo sapiens, UniProt P21554); test: SAR analysis of agonists of the Cannabinoid Receptor 1 using an Image-Based Assay - Set 2. [Related pubchem assays (depositor defined):AID2013, AID2026]; format: functional
# Cannabinoid receptor 2 [5] = molecular target: T2, Cannabinoid receptor 2; test: SAR analysis of antagonists of the Cannabinoid Receptor 2 using an Image-Based Assay. [Related pubchem assays (depositor defined):AID2013, AID2026]; format: functional
# [6] = molecular target: T4, G-protein coupled receptor 35 (Homo sapiens, UniProt Q9HC97); test: SAR analysis of Antagonists of the GPR35 Receptor using an Image-Based Assay - Set 3. [Related pubchem assays (depositor defined):AID2013, AID2026]; format: functional
# [7] = molecular target: T4, G-protein coupled receptor 35; test: SAR analysis of Agonists of the GPR35 Receptor using an Image-Based Assay - Set 2. [Related pubchem assays (depositor defined):AID2013, AID2026]; format: functional
# Cannabinoid receptor 1 [8] = molecular target: T3, Cannabinoid receptor 1; test: SAR analysis of antagonists of the Cannabinoid Receptor 1 using an Image-Based Assay - Set 2. [Related pubchem assays (depositor defined):AID2013, AID2026]; format: functional
# [9] = molecular target: T5, E3 ubiquitin-protein ligase XIAP (Homo sapiens, UniProt P98170); test: SAR analysis of Antagonists of XIAP-Bir3 domain of IAP-family anti-apoptotic proteins. [Related pubchem assays (depositor defined):AID1018, AID1449, AID1513, AID1514, AID1638]
# [10] = molecular target: T5, E3 ubiquitin-protein ligase XIAP; test: SAR analysis of Antagonists of IAP-family anti-apoptotic proteins. [Related pubchem assays (depositor defined):AID1018, AID1449, AID1513, AID1514, AID1638]
# [11] = molecular target: Intestinal-type alkaline phosphatase (Homo sapiens, UniProt P09923); test: human intestinal alkaline phosphatase activators, dose response, biochemical, luminescence, uHTS hits (AID 463120); format: functional
# [12] = molecular target: T6, Runt-related transcription factor 1/Core-binding factor subunit beta (Homo sapiens, UniProt Q01196+Q13951); test: Runt domain/CBFb-SMMHC interaction disruptors – biochemical, TR-FRET (AID 1438); format: protein assay
# [13] = molecular target: T6, Runt-related transcription factor 1/Core-binding factor subunit beta; test: disruptors of Runt domain/CBFb-SMMHC interaction – biochemical, FRET, Cerulean-Runt, Venus-CBFb-SMMHC, uHTS, […] (AID 1434); format: protein assay
# T5 sequence (P98170 whole entry, the tested form may be a part): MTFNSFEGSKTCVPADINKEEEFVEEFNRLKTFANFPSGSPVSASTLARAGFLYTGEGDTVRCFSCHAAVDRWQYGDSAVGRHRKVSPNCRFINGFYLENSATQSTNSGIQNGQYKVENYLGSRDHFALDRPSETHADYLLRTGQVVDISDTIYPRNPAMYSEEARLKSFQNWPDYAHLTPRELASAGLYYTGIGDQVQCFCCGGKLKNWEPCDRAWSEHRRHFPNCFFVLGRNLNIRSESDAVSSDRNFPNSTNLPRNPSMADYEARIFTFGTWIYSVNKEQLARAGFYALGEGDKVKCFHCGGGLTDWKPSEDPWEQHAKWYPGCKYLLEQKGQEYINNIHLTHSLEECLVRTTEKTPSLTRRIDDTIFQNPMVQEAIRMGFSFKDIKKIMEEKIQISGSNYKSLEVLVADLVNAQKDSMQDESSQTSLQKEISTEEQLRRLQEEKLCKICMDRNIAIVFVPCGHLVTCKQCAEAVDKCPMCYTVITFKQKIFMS
# T2 sequence (P34972 whole entry): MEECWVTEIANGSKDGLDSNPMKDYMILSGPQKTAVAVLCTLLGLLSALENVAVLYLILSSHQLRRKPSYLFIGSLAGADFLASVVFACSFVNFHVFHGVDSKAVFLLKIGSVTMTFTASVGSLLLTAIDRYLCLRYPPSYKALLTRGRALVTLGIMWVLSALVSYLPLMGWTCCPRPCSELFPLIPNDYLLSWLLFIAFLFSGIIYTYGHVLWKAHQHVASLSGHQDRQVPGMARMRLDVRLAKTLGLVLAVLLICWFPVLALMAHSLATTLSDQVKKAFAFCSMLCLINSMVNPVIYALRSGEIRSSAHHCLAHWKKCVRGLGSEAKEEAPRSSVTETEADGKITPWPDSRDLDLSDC
# T1 sequence (Q9Y2T6 whole entry): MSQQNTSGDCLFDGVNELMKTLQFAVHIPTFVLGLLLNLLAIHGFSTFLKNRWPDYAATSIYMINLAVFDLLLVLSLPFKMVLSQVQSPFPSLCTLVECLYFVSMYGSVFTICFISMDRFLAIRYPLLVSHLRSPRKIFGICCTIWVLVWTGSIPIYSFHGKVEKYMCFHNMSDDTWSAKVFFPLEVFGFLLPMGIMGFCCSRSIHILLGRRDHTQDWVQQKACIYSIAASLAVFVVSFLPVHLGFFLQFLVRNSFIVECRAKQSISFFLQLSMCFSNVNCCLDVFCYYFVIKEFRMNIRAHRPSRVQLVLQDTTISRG
# T6 sequence (Q01196 whole entry, the tested form may be a part): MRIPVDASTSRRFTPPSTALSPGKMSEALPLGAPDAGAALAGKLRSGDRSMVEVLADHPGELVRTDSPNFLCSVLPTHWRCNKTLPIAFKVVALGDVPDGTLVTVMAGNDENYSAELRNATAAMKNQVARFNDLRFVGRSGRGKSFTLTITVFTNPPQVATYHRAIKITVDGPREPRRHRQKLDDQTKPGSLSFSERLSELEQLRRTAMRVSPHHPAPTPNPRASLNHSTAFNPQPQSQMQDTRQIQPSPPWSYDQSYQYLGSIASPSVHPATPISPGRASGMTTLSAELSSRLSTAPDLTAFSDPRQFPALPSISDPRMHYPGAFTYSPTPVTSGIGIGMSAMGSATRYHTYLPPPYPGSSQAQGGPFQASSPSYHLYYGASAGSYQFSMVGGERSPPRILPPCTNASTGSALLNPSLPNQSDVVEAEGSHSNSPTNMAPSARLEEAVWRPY
# T6 sequence (Q13951 whole entry, the tested form may be a part): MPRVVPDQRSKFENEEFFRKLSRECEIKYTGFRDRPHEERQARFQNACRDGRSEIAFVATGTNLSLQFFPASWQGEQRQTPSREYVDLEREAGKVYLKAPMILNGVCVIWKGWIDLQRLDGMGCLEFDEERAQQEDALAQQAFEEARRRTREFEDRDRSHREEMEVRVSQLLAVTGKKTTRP
# T3 sequence (P21554 whole entry): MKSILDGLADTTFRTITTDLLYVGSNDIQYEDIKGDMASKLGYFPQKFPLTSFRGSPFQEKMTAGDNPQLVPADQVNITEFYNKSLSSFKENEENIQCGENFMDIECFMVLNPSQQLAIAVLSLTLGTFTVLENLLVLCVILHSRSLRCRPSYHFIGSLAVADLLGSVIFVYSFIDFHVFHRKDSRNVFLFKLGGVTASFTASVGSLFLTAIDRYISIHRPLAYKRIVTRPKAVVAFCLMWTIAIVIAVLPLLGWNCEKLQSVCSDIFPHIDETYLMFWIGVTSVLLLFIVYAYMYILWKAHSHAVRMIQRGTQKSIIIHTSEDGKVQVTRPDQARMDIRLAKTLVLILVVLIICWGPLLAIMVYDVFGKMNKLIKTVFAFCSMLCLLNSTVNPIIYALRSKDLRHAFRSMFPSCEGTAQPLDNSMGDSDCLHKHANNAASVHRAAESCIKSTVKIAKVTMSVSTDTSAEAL
# T4 sequence (Q9HC97 whole entry): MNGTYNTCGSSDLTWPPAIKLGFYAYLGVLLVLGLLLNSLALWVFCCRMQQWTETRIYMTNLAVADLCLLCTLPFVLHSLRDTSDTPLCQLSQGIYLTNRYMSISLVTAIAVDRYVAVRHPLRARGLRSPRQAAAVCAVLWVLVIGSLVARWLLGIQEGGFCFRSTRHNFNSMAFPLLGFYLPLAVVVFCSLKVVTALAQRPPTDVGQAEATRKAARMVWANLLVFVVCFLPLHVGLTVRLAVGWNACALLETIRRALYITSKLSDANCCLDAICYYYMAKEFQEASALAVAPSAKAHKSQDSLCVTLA
# Intestinal-type alkaline phosphatase, sequence (P09923 whole entry, the tested form may be a part): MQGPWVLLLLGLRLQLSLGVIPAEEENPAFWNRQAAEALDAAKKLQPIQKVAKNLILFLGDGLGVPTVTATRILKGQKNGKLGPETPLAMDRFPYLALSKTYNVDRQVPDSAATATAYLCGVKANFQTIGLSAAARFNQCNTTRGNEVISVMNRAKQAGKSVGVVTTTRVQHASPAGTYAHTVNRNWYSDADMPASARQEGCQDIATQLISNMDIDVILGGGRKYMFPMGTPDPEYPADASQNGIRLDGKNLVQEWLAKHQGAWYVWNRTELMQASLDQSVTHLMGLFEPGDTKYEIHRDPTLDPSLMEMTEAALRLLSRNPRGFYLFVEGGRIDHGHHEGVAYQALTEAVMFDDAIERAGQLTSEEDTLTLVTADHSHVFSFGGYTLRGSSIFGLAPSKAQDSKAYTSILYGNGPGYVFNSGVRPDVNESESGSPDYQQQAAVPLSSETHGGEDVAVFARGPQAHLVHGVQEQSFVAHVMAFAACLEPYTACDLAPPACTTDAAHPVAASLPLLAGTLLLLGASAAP
smiles,measurement,setting,value
CCCCC1(Cc2ccc(OC)c([N+](=O)[O-])c2)C(=O)N(c2ccccc2)N(c2ccccc2)C1=O,IC50,[1],3.42 µM (active)
same,EC50,Cannabinoid receptor 2 [2],> 32 µM (inactive)
same,IC50,[3],1.81 µM (active)
same,EC50,Cannabinoid receptor 1 [4],> 32 µM (inactive)
same,IC50,Cannabinoid receptor 2 [5],> 32 µM (inactive)
same,IC50,[6],> 32 µM (inactive)
same,EC50,[7],> 32 µM (inactive)
same,IC50,Cannabinoid receptor 1 [8],> 32 µM (inactive)
CN[C@@H](C)C(=O)N[C@H](C(=O)N1CCC[C@H]1C(=O)NNc1ccccc1)C(C)C,IC50,[9],2.9 µM (active)
same,IC50,[10],1.3 µM (active)
Cc1cc(C)c2nc(SCC(=O)NNC(=O)c3ccco3)c(C)cc2c1,EC50,[11],12.7 µM (active)
CC(C)C(=O)N(c1cc2sc(=O)oc2c2ccccc12)S(=O)(=O)c1cccs1,IC50,[12],> 100 µM (inactive)
same,IC50,[13],> 100 µM (inactive)

# From ChEMBL document CHEMBL1201862, “PubChem BioAssay data set” (2004)
